In US20240309007A1, “CRYSTALLINE FORMS OF 3-{4-[(2R)-2-AMINOPROPOXY]PHENYL}-N-[(1R)- 1-(3-FLUOROPHENYL) ETHYL]IMIDAZO[1,2-B]PYRIDAZIN-6-AMINE AND SALTS THEREOF” (ANHEART THERAPEUTICS (HANGZHOU) CO., LTD., priority 2021, published 2024):

Assay: Stability under stress conditions (XRPD and HPLC purity)
Format: physicochemical
Protocol: A predetermined amount of the crystalline form A of Compound 1 adipate was stored under the following conditions: (1) open to air under 25° C./60% RH for one or two weeks, (2) open to air under 40° C./75% RH for one or two weeks, (3) open to air under 80° C. for one day, and (4) exposed to light for 10 days. Crystalline form and chemical impurity were checked by XRPD and HPLC, respectively.
In Table 5, Sample No. 1 was a crystalline form A starting material before any test; Samples Nos. 2 and 3 were subject to condition (1) described above; Samples Nos. 4 and 5 were subject to condition (2) described above; Samples No. 6 was subject to condition (3) described above; and Samples Nos. 7 and 8 were subject to condition (4) described above where Sample No. 7 was not covered and Sample No. 8 was completely covered by a tin foil as a comparison.

[1] = Exposure to light (1.2 million lux h), 10 days, completely covered by a tin foil (comparison)
[2] = Exposure to light (1.2 million lux h), 10 days, not covered
[3] = open to air, 25° C./60% RH, 1 week
[4] = open to air, 25° C./60% RH, 2 weeks
[5] = open to air, 40° C./75% RH, 1 week
[6] = open to air, 40° C./75% RH, 2 weeks
[7] = starting material before any test

SMILES: C[C@@H](N)COc1ccc(-c2cnc3ccc(N[C@H](C)c4cccc(F)c4)nn23)cc1 [crystalline form A of Compound 1 adipate, 3-{4-[(2R)-2-aminopropoxy]phenyl}-N-[(1R)-1-(3-fluorophenyl)ethyl]imidazo[1,2-b]pyridazin-6-amine]
- crystalline form on storage (physical stability): remains unchanged
- physical and chemical stability (in words): superior physical and chemical stability
- purity on storage (chemical stability): essentially unchanged
- Purity (%) [1]: 99.81%
- XRPD [1]: Form A
- Purity (%) [2]: 99.79%
- XRPD [2]: Form A
- Purity (%) [3]: 99.81%
- XRPD [3]: Form A
- Purity (%) [4]: 99.79%
- XRPD [4]: Form A
- Purity (%) [5]: 99.84%
- XRPD [5]: Form A
- Purity (%) [6]: 99.81%
- XRPD [6]: Form A
- Purity (%) (open to air, 80° C., 1 day): 99.68%
- XRPD (open to air, 80° C., 1 day): Form A
- Purity (%) [7]: 99.86%
- XRPD [7]: Form A
